Usually pIC50 stands for the negative decadic logarithm of the IC50, by convention in mol/L.

The values below come from article PMC6213216, “AbeTx1 Is a Novel Sea Anemone Toxin with a Dual Mechanism of Action on Shaker-Type K^+ Channels Activation” (Marine Drugs, 2018).

pIC50: −log10 of the molar value. Like-named read-outs stand apart in the source and are kept apart here. Positions of bridges follow the written chain, without caps; N, C: chain ends. Residues, ends and D or L forms follow the SMILES beside them.

The target of one assay is T1, rKV1.1 (Rattus norvegicus, UniProt P10499).
T1 construct: expressed in transfected cells; host or cells: Xenopus laevis oocytes injected with cRNA
T1 sequence (P10499 whole entry): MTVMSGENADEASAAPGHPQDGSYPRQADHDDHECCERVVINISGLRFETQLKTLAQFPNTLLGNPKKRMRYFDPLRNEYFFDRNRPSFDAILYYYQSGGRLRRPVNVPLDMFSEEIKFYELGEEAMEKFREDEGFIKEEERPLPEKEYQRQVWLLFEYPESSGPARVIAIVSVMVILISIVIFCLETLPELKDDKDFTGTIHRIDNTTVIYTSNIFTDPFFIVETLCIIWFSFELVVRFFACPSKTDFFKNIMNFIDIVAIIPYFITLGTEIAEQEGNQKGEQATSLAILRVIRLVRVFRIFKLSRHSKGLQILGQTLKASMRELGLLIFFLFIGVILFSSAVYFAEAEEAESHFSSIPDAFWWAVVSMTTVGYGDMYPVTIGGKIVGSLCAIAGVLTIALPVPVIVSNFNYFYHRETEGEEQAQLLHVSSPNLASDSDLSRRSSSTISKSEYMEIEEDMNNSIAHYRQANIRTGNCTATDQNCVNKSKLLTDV
The experiment in a line: Two-electrode voltage-clamp on Xenopus laevis oocytes expressing rKV1.1. The class given is cell-based. Here is the method:
(§1) The pharmacological effect of AbeTx1 was analyzed by heterologous expression of 12 voltage-gated potassium channels isoforms (rKV1.1, Genbank NM173095; rKV1.2, Genbank NM012970; hKV1.3, Genbank L23499; rKV1.4,Genbank NM012971; rKV1.5, Genbank NM012972; rKV1.6, Genbank NM575671; Shaker IR from Drosophila melanogaster, Genbank CG12348; rKV2.1, Genbank NM013186; hKV3.1, Genbank NM004976; rKV4.2, Genbank NM031730; rKV4.3, Genbank NM031739 and hERG, Genbank NM000238), and three voltage-gated sodium channel subtypes (rNaV1.2, Genbank NM012647; rNaV1.4, Genbank M26643 and BgNaV1.1, from Blattella germanica) (r, rat; h, human) in oocytes from Xenopus laevis. The linearized plasmids were transcribed using a T7 or SP6 mMESSAGE-mMACHINE transcription kit (Life Technologies, Austin, TX, USA). Oocytes were injected with 20–50 nL of cRNA at a concentration of 1 ng·nL^−1 using a microinjector (Drummond Scientific, Broomall, PA, USA). The oocytes were stored for 1–3 days at 16 °C until sufficient expression of voltage-gated ion channels was achieved. Oocytes were maintained in an ND96 solution (in mM: 96 NaCl, 2 KCl, 1.8 CaCl2, 2 MgCl2 and 5 HEPES; pH 7.4), supplemented with 50 µg·mL^−1 gentamicin sulfate.
(§2) Two-electrode voltage-clamp recordings were performed at room temperature (18–22 °C) using a Geneclamp 500 amplifier (Molecular Devices, Sunnyvale, CA, USA) controlled by a pClamp data acquisition system (Axon Instruments, Union City, CA, USA). ND96 was used as bath solution. Whole-cell currents from oocytes were recorded 1–3 days after injection. Voltage and current electrodes were filled with KCl (3 M). The resistance of both electrodes was kept between 0.8–1.0 MΩ. The elicited currents were filtered at 0.5 or 2 kHz using a four-pole low-pass Bessel filter. Leak subtraction was performed using a -P/4 protocol. KV1.1-KV1.6 and Shaker IR currents were evoked by 500 ms depolarization to 0 mV, followed by a 500 ms pulse to −50 mV, from a holding potential of −90 mV. KV2.1, KV3.1, KV4.2, and KV4.3 currents were elicited by 500 ms pulses to + 20 mV from a holding potential of −90 mV. Current traces of hERG channels were elicited by applying a +40 mV pulse for 2.5 s, followed by a step to −120 mV for 2.5 s. Sodium current traces were evoked by 100 ms depolarization steps from a holding potential of −90 mV to 0 mV. Concentration-response curves were constructed by adding different AbeTx1 or analogs concentrations directly to the bath solution. The percentage of the KV blockade was plotted against the logarithm of the applied concentrations and fitted with the Hill Equation (1):y = 100/[1 + (IC50/[toxin]) × h](1) where y is the amplitude of the toxin-induced effect, IC50 is the toxin concentration at half-maximal efficacy, [toxin] is the toxin concentration, and h is the Hill coefficient. To investigate the effects on the voltage dependence of activation, current traces were evoked by 10 mV depolarization steps from a holding potential of −90 mV. Data were normalized to the maximal K^+ current amplitude, plotted against prepulse potential, and fitted using the Boltzmann Equation (2):IK/Imax = [1 + (exp(Vg − V)/k] − 1(2) where Imax represents maximal potassium current (IK), Vg is the voltage corresponding to half-maximal current, and k is the slope factor. Each experimental data represents mean ± standard error of at least three oocytes (n ≥ 3) from different frogs. Effect of the toxin on current-voltage experiments was statistically examined by comparing the control condition and the presence of toxin using the Student’s paired t-test. P-values < 0.05 are considered to be statistically significant. Data were analyzed using Clampfit 10.4 (Molecular Devices, Sunnyvale, CA, USA) and Origin v8.1 software (Origin Lab, Northampton, MA, USA), under the institutional license of the University of São Paulo.
(Two-electrode voltage clamp holds a large cell at a set potential and records current.)

The target in the next assay is T2, rKV1.6 (Rattus norvegicus, UniProt P17659).
T2 construct: expressed in transfected cells; host or cells: Xenopus laevis oocytes injected with cRNA
T2 sequence (P17659 whole entry): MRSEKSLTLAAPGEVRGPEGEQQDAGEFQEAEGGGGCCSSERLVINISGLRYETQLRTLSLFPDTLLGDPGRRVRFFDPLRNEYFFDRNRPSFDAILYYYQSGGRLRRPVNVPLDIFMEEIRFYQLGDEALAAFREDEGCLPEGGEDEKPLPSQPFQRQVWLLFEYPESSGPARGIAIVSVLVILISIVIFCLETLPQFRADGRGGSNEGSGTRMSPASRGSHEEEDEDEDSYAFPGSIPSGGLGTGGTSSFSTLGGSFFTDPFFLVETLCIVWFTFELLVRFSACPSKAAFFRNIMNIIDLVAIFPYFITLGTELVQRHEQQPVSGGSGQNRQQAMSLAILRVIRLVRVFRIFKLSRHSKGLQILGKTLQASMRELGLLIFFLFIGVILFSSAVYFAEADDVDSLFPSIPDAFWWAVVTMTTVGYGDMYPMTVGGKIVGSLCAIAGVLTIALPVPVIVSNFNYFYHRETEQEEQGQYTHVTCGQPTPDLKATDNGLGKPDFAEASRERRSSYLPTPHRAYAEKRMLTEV
Briefly: Two-electrode voltage-clamp on Xenopus laevis oocytes expressing rKV1.6. Format: cell-based. Here is the method:
as §1, §2

The mark [1] stands for this setting: concentration-response curve, percentage blocked current fitted with Hill equation, TEVC oocytes, 0 mV from −90 mV, mean ± SE, n ≥ 3, SEM, read-out: KV1.1 IC50.
The mark [2] stands for this setting: concentration-response curve, percentage blocked current fitted with Hill equation, TEVC oocytes, 0 mV from −90 mV, mean ± SE, n ≥ 3, SEM, read-out: KV1.6 IC50.

`C[C@@H]1NC(=O)CNC(=O)[C@H](CCCCN)NC(=O)[C@H](CO)NC(=O)[C@@H]2CSSC[C@H](NC1=O)C(=O)N[C@@H](CCCNC(=N)N)C(=O)N1CCC[C@H]1C(=O)N[C@@H](CCCCN)C(=O)N1CCC[C@H]1C(=O)N[C@@H](CC(N)=O)C(=O)N[C@H](C(=O)NCC(=O)O)CSSC[C@H](NC(=O)[C@@H](N)CCCNC(=N)N)C(=O)N[C@@H](CCCCN)C(=O)N[C@@H]([C@@H](C)O)C(=O)N2` [Arg9Ala] (H-RCKTCSKGACRPKPNCG-OH; disulfide 2-16, 5-10): the negative logarithm of the IC50 (pIC50) was 5.07 on rKV1.1 (setting [1]) and 5.61 on rKV1.6 (setting [2]).
The matching figures for `C[C@H](N)C(=O)N[C@H]1CSSC[C@@H](C(=O)NCC(=O)O)NC(=O)[C@H](CC(N)=O)NC(=O)[C@@H]2CCCN2C(=O)[C@H](CCCCN)NC(=O)[C@@H]2CCCN2C(=O)[C@H](CCCNC(=N)N)NC(=O)[C@@H]2CSSC[C@H](NC(=O)[C@H]([C@@H](C)O)NC(=O)[C@H](CCCCN)NC1=O)C(=O)N[C@@H](CO)C(=O)N[C@@H](CCCCN)C(=O)NCC(=O)N[C@@H](CCCNC(=N)N)C(=O)N2` [Arg1Ala] (H-ACKTCSKGRCRPKPNCG-OH; disulfide 2-16, 5-10): 5.71 and 5.45.
As to `C[C@@H]1NC(=O)[C@@H]2CCCN2C(=O)[C@H](CCCNC(=N)N)NC(=O)[C@@H]2CSSC[C@H](NC(=O)[C@H]([C@@H](C)O)NC(=O)[C@H](CCCCN)NC(=O)[C@@H](NC(=O)[C@@H](N)CCCNC(=N)N)CSSC[C@@H](C(=O)NCC(=O)O)NC(=O)[C@H](CC(N)=O)NC(=O)[C@@H]3CCCN3C1=O)C(=O)N[C@@H](CO)C(=O)N[C@@H](CCCCN)C(=O)NCC(=O)N[C@@H](CCCNC(=N)N)C(=O)N2` [Lys13Ala] (H-RCKTCSKGRCRPAPNCG-OH; disulfide 2-16, 5-10), the negative-log IC50 (pIC50) at rKV1.1 (setting [1]) was 5.34; at rKV1.6 (setting [2]) it was 5.97.
For the molecule `CC[N+](CC)(CC)CC` [TEA, tetraethylammonium, reference compound], at rKV1.1 (200 μM TEA alone in bath solution), the “KV1.1 current reduced to” value is 52.20 ± 1.74%. The negative logarithm of the IC50 (pIC50) at rKV1.1 (external TEA in bath solution, concentration stated as IC50, read-out: TEA IC50 on KV1.1) is 3.70; at rKV1.6 (external TEA in bath solution, concentration stated as IC50, read-out: TEA IC50 on KV1.6), 3.04. Further, on rKV1.6 (920 μM TEA alone in bath solution), the “KV1.6 K+ currents reduced to” value amounted to 51.50 ± 0.65%.
